Experimental data: ChEMBL document CHEMBL1145574, “Carbonic anhydrase inhibitors: Inhibition of the new membrane-associated isoform XV with phenols” (Bioorg Med Chem Lett, 2008)

How the values were obtained:
Carbonic anhydrase 15 = molecular target: T1, Carbonic anhydrase 15 (Mus musculus, UniProt Q99N23)
T1 sequence (Q99N23 whole entry): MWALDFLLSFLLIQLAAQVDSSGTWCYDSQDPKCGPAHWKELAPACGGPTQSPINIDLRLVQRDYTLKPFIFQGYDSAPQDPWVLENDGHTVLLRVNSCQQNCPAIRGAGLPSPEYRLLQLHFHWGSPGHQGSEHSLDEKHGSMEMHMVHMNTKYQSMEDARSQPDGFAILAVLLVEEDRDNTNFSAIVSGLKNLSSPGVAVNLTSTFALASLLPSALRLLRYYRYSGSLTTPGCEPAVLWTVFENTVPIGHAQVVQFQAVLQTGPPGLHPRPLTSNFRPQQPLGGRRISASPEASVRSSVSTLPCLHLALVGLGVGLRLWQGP
Description: Inhibition of mouse recombinant carbonic anhydrase 15 by stopped-flow CO2 hydrase assay

Carbonic anhydrase 1 = Carbonic anhydrase 1 (Homo sapiens, UniProt P00915)
Description: Inhibition of human carbonic anhydrase 1 by stopped-flow CO2 hydrase assay

Carbonic anhydrase 2 = Carbonic anhydrase 2 (Homo sapiens, UniProt P00918)
Description: Inhibition of human carbonic anhydrase 2 by stopped-flow CO2 hydrase assay

Sequence of Carbonic anhydrase 1 (P00915 whole entry): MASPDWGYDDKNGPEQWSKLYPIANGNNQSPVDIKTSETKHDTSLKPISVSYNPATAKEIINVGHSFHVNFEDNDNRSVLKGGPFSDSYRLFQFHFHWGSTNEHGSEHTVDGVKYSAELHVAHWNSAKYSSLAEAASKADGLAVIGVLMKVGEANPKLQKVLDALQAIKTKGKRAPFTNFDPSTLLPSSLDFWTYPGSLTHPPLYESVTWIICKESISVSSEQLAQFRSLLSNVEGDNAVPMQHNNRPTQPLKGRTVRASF

Compound	Ki (Carbonic anhydrase 15) [µM]	Ki (Carbonic anhydrase 1) [µM]	Ki (Carbonic anhydrase 2) [µM]
Oc1cc(F)cc(F)c1	11.3	–	–
Nc1ccc(O)cc1 [4-AMINOPHENOL]	335	–	–
N#Cc1ccc(O)cc1 [4-CYANOPHENOL]	434	131	–
CC(=O)Nc1ccc(O)cc1 [ACETAMINOPHEN]	9.23	10	6.2
Oc1ccccc1O [CATECHOL]	10.2	4000	9.91
O=C(O)c1ccc(O)cc1 [PARABEN]	9.32	9.8	–
Oc1ccccc1 [PHENOL]	10.5	–	–

Second part, led by results:

Ki (Carbonic anhydrase 15) [µM]	Ki (Carbonic anhydrase 1) [µM]	Compound	Ki (Carbonic anhydrase 2) [µM]
212	134	Oc1cc(F)ccc1F	870
2.33	–	Oc1c(I)cc(Cl)c2cccnc12 [CLIOQUINOL]	–
10.6	10.7	Oc1ccc(O)cc1 [HYDROQUINONE]	–
385	795	Oc1cccc(O)c1 [RESORCINOL]	–
